Assay results reported in PMC7374060, “An Antivirulence Approach for Preventing Cryptococcus neoformans from Crossing the Blood-Brain Barrier via Novel Natural Product Inhibitors of a Fungal Metalloprotease” (mBio, 2020).

Biological target: T1, Mpr1 (Cryptococcus neoformans, UniProt J9VXZ9)
T1 construct: gene CNAG_04735; recombinant His-tagged Mpr1 secreted from Pichia pastoris expressing CnMPR1-HIS cDNA
Experiment: FITC-casein proteolysis assay with purified recombinant Mpr1-His
Assay type: biochemical

T1 sequence (J9VXZ9 entry or part of it): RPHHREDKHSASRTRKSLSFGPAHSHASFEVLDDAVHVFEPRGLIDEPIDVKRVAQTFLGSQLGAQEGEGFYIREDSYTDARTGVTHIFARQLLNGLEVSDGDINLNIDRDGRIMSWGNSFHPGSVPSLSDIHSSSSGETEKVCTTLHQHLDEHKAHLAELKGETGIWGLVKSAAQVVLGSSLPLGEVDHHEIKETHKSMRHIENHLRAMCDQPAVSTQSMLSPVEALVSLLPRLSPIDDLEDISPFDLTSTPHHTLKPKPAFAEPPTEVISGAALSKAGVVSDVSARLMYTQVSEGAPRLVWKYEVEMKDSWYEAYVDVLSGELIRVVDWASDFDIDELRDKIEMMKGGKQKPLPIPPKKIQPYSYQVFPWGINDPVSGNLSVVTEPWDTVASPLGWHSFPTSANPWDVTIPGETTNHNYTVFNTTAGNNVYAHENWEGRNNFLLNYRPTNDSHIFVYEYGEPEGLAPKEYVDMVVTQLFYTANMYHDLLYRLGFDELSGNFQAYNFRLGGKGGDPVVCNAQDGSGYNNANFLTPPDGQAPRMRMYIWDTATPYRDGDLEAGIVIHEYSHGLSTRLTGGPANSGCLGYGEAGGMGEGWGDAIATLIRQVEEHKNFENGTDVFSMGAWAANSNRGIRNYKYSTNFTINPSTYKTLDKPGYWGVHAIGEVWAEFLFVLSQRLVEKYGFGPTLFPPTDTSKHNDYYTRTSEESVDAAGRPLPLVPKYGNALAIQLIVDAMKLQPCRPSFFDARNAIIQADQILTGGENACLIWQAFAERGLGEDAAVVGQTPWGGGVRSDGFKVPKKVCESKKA

SMILES | IC50
CC(C)C1=CC2=CC[C@@H]3[C@](C)(CCC[C@@]3(C)C(=O)O)[C@H]2CC1 [NP001-1C11, abietic acid] | 5.14 µM
OC[C@@H]1CCCN2CCCC[C@H]12 [NP003-2B11, lupinine] | 9.66 µM
C[C@@H]1CC[C@@]2(OC1)O[C@H]1C[C@H]3[C@@H]4CC=C5C[C@@H](O)CC[C@]5(C)[C@H]4CC[C@]3(C)[C@H]1[C@@H]2C [NP002-1D9, diosgenin] | 5.03 µM
